Key:
[1] = Discoloration of CBD solutions and formulations; assay type: physicochemical; conditions: by end of day 1
From the text: The CBD2 material dissolved like the CBD1 therefore the CBD2 is CBD without the discoloration properties of CBD1.

sensitized guinea-pigs = conditions: 1 mg/kg i.v.; cited from earlier work
[2] = biological target: T1, human vanilloid receptor type 1 (VR1) (Homo sapiens, UniProt Q8NER1); conditions: HEK-hVR1 transfected cells; cited from earlier work
T1 construct: host or cells: HEK cells transfected with hVR1 (HEK-hVR1)

[3] = in ethanol, reported value; cited from earlier work
[4] = system: immortalized human sebocytes; conditions: cited from earlier work
rats = conditions: 5 mg/kg i.v. once daily for 4 weeks; cited from earlier work
[5] = Initial solubility studies of CBD in solvents; assay type: physicochemical
Experimental: First, the solubility of cannabidiol (CBD) was assessed. The powder looked granulated under the microscope. […] The conclusions from the solubility studies were that OA and IPA were very good solvents and it was surprising that IPA was so much better than ethanol.
Solubility studies: CBD dissolved at the 10% level in AE and barely 9.5% in IPM. Further exploration was not conducted due to the small amount of drug API available for non-GMP work. CBD is soluble greater than 10% but probably not in excess of 20%, as the time to dissolve additional CBD was taking considerably longer.

anandamide = conditions: rat basophilic leukemia cells; cited from earlier work

T1 sequence (Q8NER1 whole entry): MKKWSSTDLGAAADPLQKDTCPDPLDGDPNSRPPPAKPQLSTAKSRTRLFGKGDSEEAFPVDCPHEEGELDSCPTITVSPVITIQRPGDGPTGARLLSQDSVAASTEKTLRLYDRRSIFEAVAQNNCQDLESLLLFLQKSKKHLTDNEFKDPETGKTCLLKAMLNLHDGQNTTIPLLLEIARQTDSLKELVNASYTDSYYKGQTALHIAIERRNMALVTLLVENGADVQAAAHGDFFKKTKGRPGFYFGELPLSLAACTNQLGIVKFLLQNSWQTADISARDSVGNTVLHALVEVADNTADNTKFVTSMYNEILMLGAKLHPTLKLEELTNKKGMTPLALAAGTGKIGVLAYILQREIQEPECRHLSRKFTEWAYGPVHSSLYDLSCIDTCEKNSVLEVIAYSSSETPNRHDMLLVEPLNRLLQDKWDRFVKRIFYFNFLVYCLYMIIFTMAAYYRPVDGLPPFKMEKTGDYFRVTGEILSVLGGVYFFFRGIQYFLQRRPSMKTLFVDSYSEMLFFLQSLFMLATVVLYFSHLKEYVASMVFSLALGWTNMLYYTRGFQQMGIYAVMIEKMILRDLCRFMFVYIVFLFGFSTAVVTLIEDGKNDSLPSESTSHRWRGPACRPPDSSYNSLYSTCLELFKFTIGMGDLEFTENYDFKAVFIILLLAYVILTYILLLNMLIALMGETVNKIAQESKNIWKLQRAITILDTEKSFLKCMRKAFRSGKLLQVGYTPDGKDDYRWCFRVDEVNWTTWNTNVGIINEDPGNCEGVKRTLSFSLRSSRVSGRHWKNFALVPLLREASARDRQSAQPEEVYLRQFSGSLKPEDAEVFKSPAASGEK

SMILES | discoloration of solution [1] | ovalbumin-induced airway obstruction (sensitized guinea-pigs) | stimulation of human VR1 [2] | reported solubility of CBD [3] [%] | effects on sebocytes [4] | cardiac inflammation produced by doxorubicin (rats) | solubility of CBD ([5]; in arlamol E (AE), probably not in excess of 20%) | solubility of CBD ([5]; in isopropyl myristate (IPM)) [%] | solubility of CBD ([5]; weight to weight, in ethanol) | solubility of CBD ([5]; weight to weight, in hexamethyldisiloxane (HDS)) | solubility of CBD ([5]; weight to weight, in isopropyl alcohol (IPA)) | solubility of CBD ([5]; weight to weight, in mineral oil) | solubility of CBD ([5]; weight to weight, in oleyl alcohol (OA), did not go higher) | solubility of CBD ([5]; weight to weight, in propylene glycol (PG)) | effect on anandamide (anandamide)
C=C(C)[C@@H]1CCC(C)=C[C@H]1c1c(O)cc(CCCCC)cc1O [CBD1] | colored by the end of the day |  |  |  |  |  |  |  |  |  |  |  |  |  | 
C=C(C)[C@@H]1CCC(C)=C[C@H]1c1c(O)cc(CCCCC)cc1O [CBD2] | None of the CBD2 solutions were colored at the end of day 1 |  |  |  |  |  |  |  |  |  |  |  |  |  | 
C=C(C)C1CCC(C)=CC1c1c(O)cc(CCCCC)cc1O (stereo not shown) [CBD, 2-[3-methyl-6-(1-methylethenyl)-2-cyclohexen-1-yl]-5-pentyl-1,3-benzenediol] |  | attenuated ovalbumin-induced airway obstruction | maximum effect similar in efficacy to that of capsaicin | 3.5 | lipostatic, anti-proliferative, and anti-inflammatory effects | attenuated cardiac inflammation produced by doxorubicin | greater than 10% | ~9.5 | 6-7% | 3-4% | greater than 14% | 3-4% | greater than 8% | 6-7% | inhibit anandamide

Source: patent US20220323401A1, “FORMULATIONS OF CANNABINOIDS FOR THE TREATMENT OF ACNE” (priority 2017, published 2022)
